Laboratory results reported in patent US20240024289A1, “TREATMENT OF BIPOLAR DISORDERS AND PSYCHOSIS USING DEXMEDETOMIDINE HYDROCHLORIDE” (BioXcel Therapeutics, Inc., priority 2020, published 2024).
Read-outs that look alike come from different tables or passages of the source.

Tests used:
Male C57/B16 mice [1] = tested on: Male C57/B16 mice
From the text: This system uses features derived from mouse behavioral data to classify compounds for their ability to treat neuro-psychiatric symptoms by comparing the features to a proprietary reference database of behavioral feature sets that are linked to classes of marketed drugs known to treat neuro-psychiatric symptoms. Thus the system can be used as a model to identify the psychiatric effect of a compound by comparing the effects of the compounds against drugs with known validated effects.
Once all features are extracted from the raw data through an automated pipeline, proprietary bioinformatics algorithms are used to decorrelate groups of features and find the combination of values that best separate different groups of interest.
SmartCube reference data used herein include anti-psychotics tested at several dose ranges. […] Anti-psychotics, when administered at higher doses, can engage additional receptor systems and thus affect mouse behavior differently.
Animals: Male C57/B16 mice (N=12 per group) from Taconic Laboratories were used. Upon receipt, mice were group-housed in OPTI mouse ventilated cages with 4 mice per cage. Mice were acclimated to the colony room for at least one week prior to test and subsequently tested at approximately 8-9 weeks of age. All animals were examined, handled, and weighed prior to initiation of the study to assure adequate health and suitability and to minimize non-specific stress associated with manipulation.
Treatment: 7 groups (N=12 per group)
All compounds tested were formulated in NP3 (vehicle solution): 5% Pharmasolve; 30% P3 (1:1:1 PEG200:PEG400:propylene glycol); 65% saline; pH is 5.1-6.
All SmartCube runs were conducted with NP3 as vehicle and under identical settings. […] Test compounds were injected intraperitoneally (IP) for 15 min before animals were placed in SmartCube for assessment.
The results for the class analyses are presented as standardized bar charts with percentages that sum to 100 for each dose. The percentage indicates the probability the classifier can differentiate between the vehicle group and test group. […]

Male C57/B16 mice [2] = details: reference data from Psychogenics, cited from earlier work

SMILES	SmartCube class signature (Male C57/B16 mice [1]; IP, 1, 2 and 5 mcg/kg)	SmartCube class signature (Male C57/B16 mice [1]; IP, 10, 20 and 50 mcg/kg (0.01, 0.02, 0.05 mg/kg), 15 min before test)	SmartCube class signature (Male C57/B16 mice [1]; IP, higher doses)	SmartCube class signature (Male C57/B16 mice [2]; higher doses)	SmartCube class signature (Male C57/B16 mice [2]; therapeutically effective doses)
Cc1cccc([C@H](C)c2cnc[nH]2)c1C [Dexmedetomidine, (+) 4-(S)-[1-(2,3-dimethylphenyl)ethyl]-1H-imidazole]	cannot distinguish the mouse behaviour from behaviour of mice on vehicle	antipsychotic signature	high dose of anti-psychotic	–	–
N=C(N)NC(=O)Cc1c(Cl)cccc1Cl [Guanfacine]	–	–	–	high dose anti-psychotic	unable to assign signature
